Results as given in US20080242622A1, “Identification of genetic alterations that modulate drug sensitivity in cancer treatments” (Cold Spring Harbor Laboratory, priority 2007, published 2008).
Values joined by “and” are separate entries in the source; they are usually repeats but may differ in a detail not shown here. Equal entries are not always repeated.

What was measured:
[1] = test system: shTop1 2215 relapsed tumor #4 cells; experiment: Ex vivo viability of relapsed tumor cells (propidium iodide exclusion flow cytometry); format: cell-based, mice; conditions: treated ex-vivo for 24 hours
From the text: Viability, measured by propidium iodide exclusion flow cytometry, is plotted relative to untreated cells.

[2] = test system: Eμ-Myc Arf^−/− lymphoma cells; experiment: Apoptotic response / in vitro viability of lymphoma cells to doxorubicin; format: cell-based, murine; conditions: Mus musculus; apoptotic response within 24 hours
Method: Competition and viability assays were performed according to the following protocols. 2 days post infection, lymphoma cells were split into replicate wells of 500,000 cells in 12 well plates. Following 24 hour treatments with a range of drug doses, the GFP positive percentage was quantified in the surviving cell population using a BD LSRII flow cytometer. The live cell population was gated via a forward scatter (FSC) versus side scatter (SSC) plotting. […] For in vitro cell viability assays, lymphoma cells were treated in triplicate at the indicated doses of doxorubicin/camptothecin. Viability was determined after 24 hours by an FSC versus SSC gate and plotted relative to untreated viability.

[3] = congestive heart failure, dilated cardiomyopathy, death; cited from earlier work

| SMILES | drug resistance of Top2A down-regulated relapse compared to control primary tumor [1] | IC50 [2] | cumulative dose at which risks of cardiac side effects dramatically increase [3] [mg/m^2] |
| --- | --- | --- | --- |
| N.N.[Cl][Pt][Cl] [cisplatin] | not cross-resistance to cisplatin |  |  |
| COc1cccc2c1C(=O)c1c(O)c3c(c(O)c1C2=O)C[C@@](O)(C(=O)CO)C[C@@H]3O[C@H]1C[C@H](N)[C@H](O)[C@H](C)O1 [doxorubicin] | doxorubicin resistance | ~0.007 µg/mL and ~16 nM | ≥ 550 |
